Results from ChEMBL document CHEMBL1151469, “Cytotoxic activity of N-chlorotaurine on Acanthamoeba spp” (Antimicrob Agents Chemother, 2008).
Activity calls are given as the source filed them. The calls are words filed in the database; no cut-off is given here.

Tests used:
Acanthamoeba hatchetti [1] = test: Amoebicidal activity against Trophozoites of Acanthamoeba hatchetti 11DS assessed as increase in reduction in cell count at 20 mM in peptone yeast extract glucose medium at pH 7 after 6 hrs by hemocytometer using trypan blue stain in presence of 580 mM ammonium chloride; format: functional, organism-based
Acanthamoeba castellanii [2] = test: Amoebicidal activity against Trophozoites of Acanthamoeba castellanii 40AB assessed as killing time at 10 mM in phosphate buffered saline at pH 7 by hemocytometer using trypan blue stain; format: functional
Acanthamoeba hatchetti [3] = test: Amoebicidal activity against Trophozoites of Acanthamoeba hatchetti 11DS assessed as reduction of killing time at 10 mM in phosphate buffered saline at pH 5 by hemocytometer using trypan blue stain in presence of 34 mM ammonium chloride; format: functional, organism-based
Acanthamoeba hatchetti [4] = test: Amoebicidal activity against Trophozoites of Acanthamoeba hatchetti 11DS in phosphate buffered saline at pH 7 after 24 hrs by hemocytometer using trypan blue stain in presence of 34 mM ammonium chloride; format: functional, organism-based
Acanthamoeba polyphaga [5] = test: Amoebicidal activity against Trophozoites of Acanthamoeba polyphaga 5SU in peptone yeast extract glucose medium at pH 7 after 6 hrs by hemocytometer using trypan blue stain in presence of 68 mM ammonium chloride; format: functional, organism-based
Acanthamoeba hatchetti [6] = test: Amoebicidal activity against Trophozoites of Acanthamoeba hatchetti 11DS in peptone yeast extract glucose medium at pH 7 after 6 hrs by hemocytometer using trypan blue stain in presence of 68 mM ammonium chloride; format: functional, organism-based
Acanthamoeba polyphaga [7] = test: Amoebicidal activity against Trophozoites of Acanthamoeba polyphaga 5SU assessed as rounding of the cells at 55 mM in peptone yeast extract glucose medium at pH 7 after 30 mins by hemocytometer using trypan blue stain; format: functional, organism-based
Acanthamoeba hatchetti [8] = test: Amoebicidal activity against Trophozoites of Acanthamoeba hatchetti 11DS assessed as log reduction in cell count at 10 mM in phosphate buffered saline at pH 5 after 24 hrs by hemocytometer using trypan blue staining in presence of 160 mM mM beta-alanine; format: functional, organism-based
Acanthamoeba polyphaga [9] = test: Amoebicidal activity against Trophozoites of Acanthamoeba polyphaga 5SU in peptone yeast extract glucose medium at pH 7 after 6 hrs by hemocytometer using trypan blue stain; format: functional, organism-based
Acanthamoeba hatchetti [10] = test: Amoebicidal activity against Trophozoites of Acanthamoeba hatchetti 11DS assessed as log reduction in cell count at 20 mM in peptone yeast extract glucose medium at pH 7 after 6 hrs by hemocytometer using trypan blue stain; format: functional, organism-based
Acanthamoeba polyphaga [11] = test: Amoebicidal activity against Trophozoites of Acanthamoeba polyphaga 5SU in peptone yeast extract glucose medium at pH 7 after 1 hr by hemocytometer using trypan blue stain; format: functional, organism-based
Acanthamoeba polyphaga [12] = test: Amoebicidal activity against Trophozoites of Acanthamoeba polyphaga 5SU in peptone yeast extract glucose medium at pH 7 after 24 hrs by hemocytometer using trypan blue stain; format: functional, organism-based
Acanthamoeba polyphaga [13] = test: Amoebicidal activity against Trophozoites of Acanthamoeba polyphaga 5SU assessed as log reduction in cell count at 10 mM in phosphate buffered saline at pH 5 after 6 hrs by hemocytometer using trypan blue stain; format: functional, organism-based
Acanthamoeba polyphaga [14] = test: Amoebicidal activity against Trophozoites of Acanthamoeba polyphaga 5SU in peptone yeast extract glucose medium at pH 7 after 1 hr by hemocytometer using trypan blue stain in presence of 68 mM ammonium chloride; format: functional, organism-based
Acanthamoeba polyphaga [15] = test: Amoebicidal activity against Trophozoites of Acanthamoeba polyphaga 5SU assessed as log reduction in cell count at 10 mM in phosphate buffered saline at pH 7 after 6 hrs by hemocytometer using trypan blue staining; format: functional, organism-based
Acanthamoeba polyphaga [16] = test: Amoebicidal activity against Trophozoites of Acanthamoeba polyphaga 5SU assessed as log reduction in cell count at 10 mM in phosphate buffered saline at pH 5 after 6 hrs by hemocytometer using trypan blue stain in presence of 34 mM ammonium chloride; format: functional, organism-based
Acanthamoeba hatchetti [17] = test: Amoebicidal activity against Trophozoites of Acanthamoeba hatchetti 11DS assessed as rounding of the cells at 55 mM in phosphate buffered saline at pH 7 after 15 mins by hemocytometer using trypan blue stain; format: functional, organism-based
Acanthamoeba polyphaga [18] = test: Amoebicidal activity against Trophozoites of Acanthamoeba polyphaga 5SU in phosphate buffered saline at pH 7 after 1 hr by hemocytometer using trypan blue stain; format: functional, organism-based
Acanthamoeba hatchetti [19] = test: Amoebicidal activity against Trophozoites of Acanthamoeba hatchetti 11DS in phosphate buffered saline at pH 7 after 6 hrs by hemocytometer using trypan blue stain in presence of 34 mM ammonium chloride; format: functional, organism-based
Acanthamoeba hatchetti [20] = test: Amoebicidal activity against Trophozoites of Acanthamoeba hatchetti 11DS assessed as complete loss of viability at 55 mM in phosphate buffered saline after 24 hrs by hemocytometer using trypan blue stain in presence of 190 mM ammonium chloride; format: functional, organism-based
Acanthamoeba hatchetti [21] = test: Amoebicidal activity against Trophozoites of Acanthamoeba hatchetti 11DS assessed as killing time at 0.16 M in peptone yeast extract glucose medium at pH 7 by hemocytometer using trypan blue stain; format: functional
Acanthamoeba polyphaga [22] = test: Amoebicidal activity against Trophozoites of Acanthamoeba polyphaga 5SU assessed as increase in cell killing at 10 mM in phosphate buffered saline at pH 7 within 3 hrs by hemocytometer using trypan blue stain in presence of 34 mM ammonium chloride; format: functional, organism-based
Acanthamoeba polyphaga [23] = test: Amoebicidal activity against Trophozoites of Acanthamoeba polyphaga 5SU assessed as complete loss of viability at 55 mM in phosphate buffered saline after 24 hrs by hemocytometer using trypan blue stain in presence of 190 mM ammonium chloride; format: functional, organism-based
Acanthamoeba hatchetti [24] = test: Amoebicidal activity against Trophozoites of Acanthamoeba hatchetti 11DS assessed as rounding of the cells at 55 mM in peptone yeast extract glucose medium at pH 7 after 30 mins by hemocytometer using trypan blue stain; format: functional, organism-based
Acanthamoeba polyphaga [25] = test: Amoebicidal activity against excysted trophozoites of Acanthamoeba polyphaga 5SU at 55 mM in peptone yeast extract glucose medium after 11 days by hemocytometer using trypan blue stain; format: functional
Acanthamoeba polyphaga [26] = test: Amoebicidal activity against Trophozoites of Acanthamoeba polyphaga 5SU in phosphate buffered saline at pH 7 after 24 hrs by hemocytometer using trypan blue stain; format: functional, organism-based
Acanthamoeba polyphaga [27] = test: Amoebicidal activity against Trophozoites of Acanthamoeba polyphaga 5SU assessed as log reduction in cell count at 10 mM in phosphate buffered saline at pH 7 after 6 hrs by hemocytometer using trypan blue stain; format: functional
Acanthamoeba castellanii [28] = test: Amoebicidal activity against excysted trophozoites of Acanthamoeba castellanii 40AB at 55 mM in peptone yeast extract glucose medium after 24 hrs by hemocytometer using trypan blue stain; format: functional
Acanthamoeba polyphaga [29] = test: Amoebicidal activity against Trophozoites of Acanthamoeba polyphaga 5SU assessed as log reduction in cell count at 10 mM in phosphate buffered saline at pH 5 after 1 hr by hemocytometer using trypan blue stain in presence of 160 mM beta-alanine; format: functional, organism-based
Acanthamoeba polyphaga [30] = test: Amoebicidal activity against Trophozoites of Acanthamoeba polyphaga 5SU assessed as increase in reduction in cell count at 20 mM in peptone yeast extract glucose medium at pH 7 after 6 hrs by hemocytometer using trypan blue stain; format: functional, organism-based
Acanthamoeba castellanii [31] = test: Amoebicidal activity against excysted trophozoites of Acanthamoeba castellanii 40AB at 55 mM in peptone yeast extract glucose medium after 6 days by hemocytometer using trypan blue stain; format: functional
Acanthamoeba polyphaga [32] = test: Amoebicidal activity against Trophozoites of Acanthamoeba polyphaga 5SU assessed as killing time at 55 mM in peptone yeast extract glucose medium at pH 7 by hemocytometer using trypan blue stain; format: functional
Acanthamoeba hatchetti [33] = test: Amoebicidal activity against Trophozoites of Acanthamoeba hatchetti 11DS assessed as log reduction in cell count at 10 mM in phosphate buffered saline after 24 hrs by hemocytometer using trypan blue staining; format: functional, organism-based

Question: How did the Activity (Acanthamoeba hatchetti [1]) turn out when O=S(=O)(O)CCNCl was run?
Answer: inactive

Question: And the Activity (Acanthamoeba castellanii [2])?
Answer: 30 h

Question: What about the Activity (Acanthamoeba hatchetti [3]) of the same molecule?
Answer: inactive

Question: What about the EC50 (Acanthamoeba hatchetti [4]) of the same molecule?
Answer: 5.11 mM

Question: And the EC90 (Acanthamoeba hatchetti [4])?
Answer: 9.13 mM

Question: What about the EC50 (Acanthamoeba polyphaga [5]) of the same molecule?
Answer: 12.9 mM

Question: And the EC50 (Acanthamoeba hatchetti [6])?
Answer: 10.4 mM

Question: What about the Activity (Acanthamoeba polyphaga [7]) of the same molecule?
Answer: Active

Question: And the Activity (Acanthamoeba hatchetti [8])?
Answer: Active

Question: What about the EC50 (Acanthamoeba polyphaga [9]) of the same molecule?
Answer: 11.7 mM

Question: And the Activity (Acanthamoeba hatchetti [10])?
Answer: Active

Question: What about the EC50 (Acanthamoeba polyphaga [11]) of the same molecule?
Answer: 23.1 mM

Question: And the EC50 (Acanthamoeba polyphaga [12])?
Answer: 8.1 mM

Question: What about the Activity (Acanthamoeba polyphaga [13]) of the same molecule?
Answer: Active

Question: And the EC50 (Acanthamoeba polyphaga [14])?
Answer: 16.6 mM

Question: And the Activity (Acanthamoeba polyphaga [15])?
Answer: Active

Question: What about the Activity (Acanthamoeba polyphaga [16]) of the same molecule?
Answer: Active

Question: And the Activity (Acanthamoeba hatchetti [17])?
Answer: Active

Question: What about the EC50 (Acanthamoeba polyphaga [18]) of the same molecule?
Answer: 29.3 mM

Question: And the EC50 (Acanthamoeba hatchetti [19])?
Answer: 5.19 mM

Question: What about the EC90 (Acanthamoeba hatchetti [19]) of the same molecule?
Answer: 9.13 mM

Question: What about the Activity (Acanthamoeba hatchetti [20]) of the same molecule?
Answer: Active

Question: And the Activity (Acanthamoeba hatchetti [21])?
Answer: 1 h

Question: What about the Activity (Acanthamoeba polyphaga [22]) of the same molecule?
Answer: Active

Question: What about the Activity (Acanthamoeba polyphaga [23]) of the same molecule?
Answer: Active

Question: And the Activity (Acanthamoeba hatchetti [24])?
Answer: Active

Question: What about the Activity (Acanthamoeba polyphaga [25]) of the same molecule?
Answer: 200000

Question: And the EC50 (Acanthamoeba polyphaga [26])?
Answer: 3.47 mM

Question: What about the EC90 (Acanthamoeba polyphaga [26]) of the same molecule?
Answer: 7.38 mM

Question: And the Activity (Acanthamoeba polyphaga [27])?
Answer: 2

Question: And the Activity (Acanthamoeba castellanii [28])?
Answer: 0

Question: What about the Activity (Acanthamoeba polyphaga [29]) of the same molecule?
Answer: Active

Question: What about the Activity (Acanthamoeba polyphaga [30]) of the same molecule?
Answer: Active

Question: And the Activity (Acanthamoeba castellanii [31])?
Answer: 38000

Question: What about the Activity (Acanthamoeba polyphaga [32]) of the same molecule?
Answer: 3 h

Question: And the Activity (Acanthamoeba hatchetti [33])?
Answer: Active
